Measurements from publication PMC4370192, “Discovery of Specific Inhibitors for Intestinal E. coli β-Glucuronidase through In Silico Virtual Screening” (The Scientific World Journal, 2015).

Experiments:
[1] = target: T1, E. coli β-glucuronidase (eβG) (Escherichia coli, UniProt P05804); assay: In vitro βG-activity assay (pNPG hydrolysis), eβG; assay type: biochemical
T1 construct: histidine tag (N); made in house; host or cells: E. coli BL21 (DE3)
Experimental: (§1) Plasmid pRESTB containing βG gene and a histidine tag at the N-terminus was constructed as described. Recombinant βG (human and E. coli) was produced by isopropyl β-D-thiogalactopyranoside (IPTG) induction of BL21 (DE3) bacteria. βG was purified from bacterial supernatants by affinity chromatography on nickels Sepharose 6 Fast Flow (GE Healthcare). The column was washed by phosphate-buffered saline (PBS), with 50 mM imidazole, and βG was eluted by PBS with 250 mM imidazole. The purified βG was desalted on a Sephadex G-25 column equilibrated with PBS and stored at −80°C.
The candidate compounds were purchased from SPECS (The Netherlands). Each candidate was provided as a solid power and dissolved in 100% DMSO (Sigma-Aldrich) to 10 mM as stock. Candidates were screened for their inhibition specificity of eβG versus hβG, which were conducted at pH 7.3 or pH 5.4, in triplicate, respectively. 40 μL purified βG was treated with 10 μL compound solution at 37°C for 30 min and sequentially incubated with 50 μL of pNPG (Sigma-Aldrich) at 37°C for 30 min. Reactions were quenched with 5 μL of 2 N sodium hydroxide (Sigma-Aldrich). Each reaction consisted of 3.75 ng purified βG, 50 μM compound, and 5 mM pNPG in PBS containing 10% DMSO and 0.05% BSA (Sigma-Aldrich). βG-activities were measured by color development of pNP detected on a microplate reader at OD 405 nm. […] For IC50 determination, compounds at various concentrations (100 μM to 0.001 μM) were added.
Supplementary file 740815.f1.pdf: Fifty-nine candidate compounds were acquired from the initial virtually screening which was designed to target the bacterial loop of eβG and its active site. The docking energy scores of 59 candidate compounds measured by the DOCK program are -43 to -55 kcal/mol. (Table S1) The candidate compounds were purchased from SPECS (Zoetermeer, The Netherlands). Each candidate was rovided as a solid power and dissolved in 100% DMSO (Sigma-Aldrich, MO, USA) to 10 mM as stock. Candidates were screening for their inhibition specificity of eβG verse hβG, which were conducted at pH 7.3 or pH 5.4 in triplicate, respectively. 40 µL purified βG was treated with 10 µL compound solution at 37 °C for 30 min, and sequentially incubated with 50 µL of pNPG (Sigma-Aldrich) at 37 °C for 30 min. Reactions were quenched with 5 µL of 2 N sodium hydroxide (Sigma-Aldrich). Each reaction consisted of 3.75 ng purified βG, 50 µM compound, and 5 mM pNPG in PBS containing 10% DMSO and 0.05% BSA (Sigma-Aldrich). βG-activities were measured by color development of pNP detected on a microplate reader at OD 405 nm. […] Especially, the inhibiting ability against eβG activity was >95% in 7 candidates of eβG specific inhibitors (Table S1).
(§2) Fifty-nine candidate compounds were acquired from the initial virtually screening which was designed to target the bacterial loop of eβG and its active site. The docking energy scores of 59 candidate compounds measured by the DOCK program are -43 to -55 kcal/mol. (Table S1) The candidate compounds were purchased from SPECS (Zoetermeer, The Netherlands). Each candidate was provided as a solid power and dissolved in 100% DMSO (Sigma-Aldrich, MO, USA) to 10 mM as stock. Candidates were screening for their inhibition specificity of eβG verse hβG, which were conducted at pH 7.3 or pH 5.4 in triplicate, respectively. 40 μL purified βG was treated with 10 μL compound solution at 37 °C for 30 min, and sequentially incubated with 50 μL of pNPG (Sigma-Aldrich) at 37 °C for 30 min. Reactions were quenched with 5 μL of 2 N sodium hydroxide (Sigma-Aldrich). Each reaction consisted of 3.75 ng purified βG, 50 μM compound, and 5 mM pNPG in PBS containing 10% DMSO and 0.05% BSA (Sigma-Aldrich). βG-activities were measured by color development of pNP detected on a microplate reader at OD 405 nm. […]
percent of βG activity compared with the untreated control.
Especially, the inhibiting ability against eβG activity was >95% in 7 candidates of eβG specific inhibitors (Table S1).
Table S1. […]

human βG (hβG) = target: T2, human βG (hβG) (Homo sapiens, UniProt P08236); assay: In vitro βG-activity assay (pNPG hydrolysis), hβG; assay type: biochemical
T2 construct: histidine tag (N); made in house; host or cells: E. coli BL21 (DE3)
T2 sequence (P08236 23-651): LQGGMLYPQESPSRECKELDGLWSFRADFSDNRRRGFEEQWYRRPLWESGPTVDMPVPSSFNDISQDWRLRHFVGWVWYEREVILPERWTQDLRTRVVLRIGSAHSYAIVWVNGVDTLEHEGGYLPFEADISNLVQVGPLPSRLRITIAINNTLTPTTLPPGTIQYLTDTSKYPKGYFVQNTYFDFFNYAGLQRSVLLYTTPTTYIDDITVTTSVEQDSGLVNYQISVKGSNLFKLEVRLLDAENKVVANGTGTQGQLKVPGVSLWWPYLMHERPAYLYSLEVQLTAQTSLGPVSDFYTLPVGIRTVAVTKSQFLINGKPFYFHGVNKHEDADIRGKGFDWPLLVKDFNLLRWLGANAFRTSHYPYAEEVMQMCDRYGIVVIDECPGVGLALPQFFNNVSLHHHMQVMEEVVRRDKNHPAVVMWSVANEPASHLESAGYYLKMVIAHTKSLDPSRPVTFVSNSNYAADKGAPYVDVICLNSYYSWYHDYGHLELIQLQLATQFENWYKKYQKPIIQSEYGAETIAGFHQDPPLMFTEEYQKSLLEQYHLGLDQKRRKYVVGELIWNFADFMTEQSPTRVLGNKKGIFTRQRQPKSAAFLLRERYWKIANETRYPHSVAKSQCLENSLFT
Experimental: as §1
The candidate compounds were purchased from SPECS (The Netherlands). Each candidate was provided as a solid power and dissolved in 100% DMSO (Sigma-Aldrich) to 10 mM as stock. Candidates were screened for their inhibition specificity of eβG versus hβG, which were conducted at pH 7.3 or pH 5.4, in triplicate, respectively. 40 μL purified βG was treated with 10 μL compound solution at 37°C for 30 min and sequentially incubated with 50 μL of pNPG (Sigma-Aldrich) at 37°C for 30 min. Reactions were quenched with 5 μL of 2 N sodium hydroxide (Sigma-Aldrich). Each reaction consisted of 3.75 ng purified βG, 50 μM compound, and 5 mM pNPG in PBS containing 10% DMSO and 0.05% BSA (Sigma-Aldrich). βG-activities were measured by color development of pNP detected on a microplate reader at OD 405 nm.
as §2, with “(Table” for “Fifty-nine candidate compounds were acquired from the initial virtually screening which was designed to target the bacterial loop of eβG and its active site. The docking energy scores of 59 candidate compounds measured by the DOCK program are -43 to -55 kcal/mol. (Table”, “rovided” for “provided”, “µL” for “μL”, “µM” for “μM”
candidate compounds were purchased from SPECS (Zoetermeer, The Netherlands). Each candidate was provided as a solid power and dissolved in 100% DMSO (Sigma-Aldrich, MO, USA) to 10 mM as stock. Candidates were screening for their inhibition specificity of eβG verse hβG, which were conducted at pH 7.3 or pH 5.4 in triplicate, respectively. 40 μL purified βG was treated with 10 μL compound solution at 37 °C for 30 min, and sequentially incubated with 50 μL of pNPG (Sigma-Aldrich) at 37 °C for 30 min. Reactions were quenched with 5 μL of 2 N sodium hydroxide (Sigma-Aldrich). Each reaction consisted of 3.75 ng purified βG, 50 μM compound, and 5 mM pNPG in PBS containing 10% DMSO and 0.05% BSA (Sigma-Aldrich). βG-activities were measured by color development of pNP detected on a microplate reader at OD 405 nm.

[2] = 50 μM compound, pH 7.3, percent of activity vs untreated control
[3] = pH 5.4, percent of activity vs untreated control
[4] = read-out: inhibition of eβG activity

T1 sequence (P05804 whole entry): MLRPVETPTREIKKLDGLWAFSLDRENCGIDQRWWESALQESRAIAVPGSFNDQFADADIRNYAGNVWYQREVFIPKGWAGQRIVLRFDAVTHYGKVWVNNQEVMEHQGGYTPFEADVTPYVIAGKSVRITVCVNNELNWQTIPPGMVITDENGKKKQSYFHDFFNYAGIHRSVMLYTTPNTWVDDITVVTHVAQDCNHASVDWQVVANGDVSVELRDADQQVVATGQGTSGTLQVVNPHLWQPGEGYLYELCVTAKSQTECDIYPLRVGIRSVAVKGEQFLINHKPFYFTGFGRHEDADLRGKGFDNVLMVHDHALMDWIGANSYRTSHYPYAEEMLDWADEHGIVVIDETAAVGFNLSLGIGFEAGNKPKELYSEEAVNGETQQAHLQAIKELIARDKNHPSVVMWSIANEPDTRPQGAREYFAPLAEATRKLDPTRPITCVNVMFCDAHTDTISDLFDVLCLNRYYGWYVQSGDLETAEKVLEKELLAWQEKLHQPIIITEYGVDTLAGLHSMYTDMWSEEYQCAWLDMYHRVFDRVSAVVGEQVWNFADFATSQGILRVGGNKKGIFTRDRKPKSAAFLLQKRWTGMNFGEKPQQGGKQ

## CC1(C)CC(O)C(C(O)c2cccc([N+](=O)[O-])c2)C(C)(C)N1 (centres unmarked) [Compound 4021]
[1]; [2]
  eβG activity (%) with 50 μM compound: 28.56%
Human βG (hβG); [3]
  hβG activity (%) with 50 μM compound: 103.06%

## O=C(O)C1CC=CCC1C(=O)Nc1ccc2ccccc2c1 (centres unmarked) [Compound 4043]
[1]; [2]
  eβG activity (%) with 50 μM compound: 32.98%
Human βG (hβG); [3]
  hβG activity (%) with 50 μM compound: 81.24%

## O=C1C=C(Nc2cccc3cc(S(=O)(=O)O)ccc23)c2ccccc2C1=O [Compound 4277]
[1]; [2]
  eβG activity (%) with 50 μM compound: 44.37%
Human βG (hβG); [3]
  hβG activity (%) with 50 μM compound: 115.21%

## O=C(O)c1ccc(NS(=O)(=O)c2ccc(Br)cc2)cc1O [Compound 4465]
[1]; [2]
  eβG activity (%) with 50 μM compound: 10.04%
Human βG (hβG); [3]
  hβG activity (%) with 50 μM compound: 99.50%

## Cc1cc(NS(=O)(=O)c2ccc(NC(=O)c3cc(Cl)ccc3[N+](=O)[O-])cc2)nc(C)n1 [Compound 5003]
[1]; [2]
  eβG activity (%) with 50 μM compound: 17.02%
Human βG (hβG); [3]
  hβG activity (%) with 50 μM compound: 105.54%

## N#Cc1cc2[nH]c(=O)c(=O)[nH]c2cc1[N+](=O)[O-] [Compound 5012]
[1]; [2]
  eβG activity (%) with 50 μM compound: 14.96%
Human βG (hβG); [3]
  hβG activity (%) with 50 μM compound: 108.51%

## Cn1c(O)c(C=NC(Cc2c[nH]c3ccccc23)C(=O)O)c(=O)n(C)c1=O (centres unmarked) [Compound 5033]
[1]; [2]
  eβG activity (%) with 50 μM compound: 9.33%
Human βG (hβG); [3]
  hβG activity (%) with 50 μM compound: 116.12%

## O=C(O)C1CC=CCC1C(=O)Nc1ccc(Br)c2cccnc12 (centres unmarked) [Compound 5244]
[1]; [2]
  eβG activity (%) with 50 μM compound: 26.21%
Human βG (hβG); [3]
  hβG activity (%) with 50 μM compound: 44.38%

## CC1=C(C)CC(C(=O)Nc2c(C)cccc2C)C(C(=O)O)C1 (centres unmarked) [Compound 5259]
[1]; [2]
  eβG activity (%) with 50 μM compound: 34.05%
Human βG (hβG); [3]
  hβG activity (%) with 50 μM compound: 106.20%

## N/C(=N\c1nc2c(c(=O)[nH]1)CCC2)Nc1ccccc1 [Compound 5905]
[1]; [2]
  eβG activity (%) with 50 μM compound: 24.93%
Human βG (hβG); [3]
  hβG activity (%) with 50 μM compound: 104.96%

## CC1=NN(c2ccc(Cl)cc2)C(=O)/C1=C\N1CCN(C)CC1 [Compound 6003]
[1]; [2]
  eβG activity (%) with 50 μM compound: 9.76%
Human βG (hβG); [3]
  hβG activity (%) with 50 μM compound: 93.06%

## N=c1c2sc3nc4ccccc4n3c2ncn1N [Compound 6015]
[1]; [2]
  eβG activity (%) with 50 μM compound: 10.40%
Human βG (hβG); [3]
  hβG activity (%) with 50 μM compound: 72.07%

## O=C(NC(NCc1ccco1)C(Cl)(Cl)Cl)c1ccc(Br)cc1 (centres unmarked) [Compound 6019]
[1]; [2]
  eβG activity (%) with 50 μM compound: 33.83%
Human βG (hβG); [3]
  hβG activity (%) with 50 μM compound: 104.96%

## COc1cc(C(=O)N2CCNCC2)cc(OC)c1OC [Compound 6368]
[1]; [2]
  eβG activity (%) with 50 μM compound: 44.87%
Human βG (hβG); [3]
  hβG activity (%) with 50 μM compound: 116.03%

## O=C(Nc1ccc(S(=O)(=O)N2CCCC2)cc1)c1[nH]ncc1[N+](=O)[O-] [Compound 6843]
[1]; [2]
  eβG activity (%) with 50 μM compound: 27.49%
Human βG (hβG); [3]
  hβG activity (%) with 50 μM compound: 108.76%

## COc1ccc(N2C(=O)CC(NC3CCCCNC3=O)C2=O)cc1 (centres unmarked) [Compound 7007]
[1]; [2]
  eβG activity (%) with 50 μM compound: 44.30%
Human βG (hβG); [3]
  hβG activity (%) with 50 μM compound: 105.79%

## N=C1C(c2nc3ccccc3c(=O)[nH]2)=C(O)CN1c1cccc(Cl)c1 [Compound 7036]
[1]; [2]
  eβG activity (%) with 50 μM compound: 6.70%
Human βG (hβG); [3]
  hβG activity (%) with 50 μM compound: 95.45%

## CC(=O)Nc1ccc(S(=O)(=O)Oc2ccc([N+](=O)[O-])cc2)cc1 [Compound 7100]
[1]; [2]
  eβG activity (%) with 50 μM compound: 20.58%
Human βG (hβG); [3]
  hβG activity (%) with 50 μM compound: 112.56%

## CC(C)(C)c1ccc(S(=O)(=O)/N=C2\C=CC(=O)c3ccccc32)cc1 [Compound 7145]
[1]; [2]
  activity at 50 µM: 1%
[1]; [4]
  inhibition at 10 µM: 55%
  inhibition at 50 µM: > 95%
[1]; recombinant eβG, pNPG substrate, pH 7.3
  IC50: 31.6 µM
Human βG (hβG); 50 μM compound
  effect on hβG activity: does not hamper hβG activity
Human βG (hβG); 50 μM compound, pH 5.4, percent of activity vs untreated control
  activity at 50 µM: 120%

## COc1ccc(S(=O)(=O)NCCN2CCOCC2)c2ccccc12 [Compound 7670]
[1]; [2]
  eβG activity (%) with 50 μM compound: 43.16%
Human βG (hβG); [3]
  hβG activity (%) with 50 μM compound: 93.31%

## CN(C)CCCNS(=O)(=O)c1ccc2c3c(cccc13)C(=O)N2 [Compound 8010]
[1]; [2]
  eβG activity (%) with 50 μM compound: 23.58%
Human βG (hβG); [3]
  hβG activity (%) with 50 μM compound: 98.84%

## NC1=C2N=C(c3ccc([N+](=O)[O-])cc3)NN2NN1 [Compound 8013a]
[1]; [2]
  eβG activity (%) with 50 μM compound: 60.40%
Human βG (hβG); [3]
  hβG activity (%) with 50 μM compound: 100.33%

## O=[N+]([O-])C12CNCC([N+](=O)[O-])(CNC1)C2 [Compound 8013b]
[1]; [2]
  eβG activity (%) with 50 μM compound: 32.91%
Human βG (hβG); [3]
  hβG activity (%) with 50 μM compound: 93.72%
